In brackets after ≈: the same amount, converted by molar mass. Read-outs that look alike come from different tables or passages of the source.
Key:
MRSE 460/11 = experiment: MIC microdilution, hospital MRSE; format: cell-based; conditions: Staphylococcus epidermidis
S. aureus ATCC 25923 = experiment: MIC microdilution; format: cell-based; conditions: Staphylococcus aureus
LoVo/dx = experiment: Antiproliferative SRB assay, LoVo/dx; format: cell-based, human; conditions: for IC50: Homo sapiens, LoVo/DX, 72 h, read-out: IC50 LoVo/dx; for IR LoVo/DX: IR = IC50 LoVo/dx / IC50 LoVo; for SI LoVo/DX: SI = IC50 BALB/3T3 / IC50 LoVo/dx
MRSE 470/11 = experiment: MIC microdilution, hospital MRSE; format: cell-based; conditions: Staphylococcus epidermidis
MRSA 537/12 = experiment: MIC microdilution, hospital MRSA; format: cell-based; conditions: Staphylococcus aureus
MRSA 572/12 = experiment: MIC microdilution, hospital MRSA; format: cell-based; conditions: Staphylococcus aureus
[1] = test system: standard and "wild" strains of M. tuberculosis; experiment: Tuberculostatic activity, all M. tuberculosis strains (overall); format: cell-based; conditions: Mycobacterium tuberculosis, H37RV, read-out: MIC (over M. tuberculosis strains)
MRSA 522/12 = experiment: MIC microdilution, hospital MRSA; format: cell-based; conditions: Staphylococcus aureus
MRSE 468/11 = experiment: MIC microdilution, hospital MRSE; format: cell-based; conditions: Staphylococcus epidermidis
MRSE 466/11 = experiment: MIC microdilution, hospital MRSE; format: cell-based; conditions: Staphylococcus epidermidis
MRSE 461/11 = experiment: MIC microdilution, hospital MRSE; format: cell-based; conditions: Staphylococcus epidermidis
MRSE 489/11 = experiment: MIC microdilution, hospital MRSE; format: cell-based; conditions: Staphylococcus epidermidis
[2] = test system: S. epidermidis ATCC 12228; experiment: MIC microdilution; format: cell-based; conditions: Staphylococcus epidermidis
MRSA 462/11 = experiment: MIC microdilution, hospital MRSA; format: cell-based; conditions: Staphylococcus aureus
[3] = hospital MRSE strain 460/11, read-out: MIC
[4] = ATCC25923, S. aureus ATCC 25923, 18 h, 35 °C, read-out: MIC
[5] = hospital MRSE strain 470/11, read-out: MIC
[6] = hospital MRSA strain 537/12, read-out: MIC
[7] = hospital MRSA strain 572/12, read-out: MIC
[8] = hospital MRSA strain 522/12, read-out: MIC
[9] = hospital MRSE strain 468/11, read-out: MIC
[10] = hospital MRSE strain 466/11, read-out: MIC
[11] = hospital MRSE strain 461/11, read-out: MIC
[12] = hospital MRSE strain 489/11, read-out: MIC
[13] = ATCC12228, S. epidermidis ATCC 12228, 18 h, 35 °C, read-out: MIC
[14] = hospital MRSA strain 462/11, read-out: MIC

| SMILES | MIC (MRSE 460/11; [3]) | MIC (S. aureus ATCC 25923; [4]) | IC50 (LoVo/dx) | IR LoVo/DX (LoVo/dx) | SI LoVo/DX (LoVo/dx) | MIC (MRSE 470/11; [5]) | MIC (MRSA 537/12; [6]) | MIC (MRSA 572/12; [7]) | MIC [1] | MIC (MRSA 522/12; [8]) | MIC (MRSE 468/11; [9]) | MIC (MRSE 466/11; [10]) | MIC (MRSE 461/11; [11]) | MIC (MRSE 489/11; [12]) | MIC [2, 13] | MIC (MRSA 462/11; [14]) | further results |
| --- | --- | --- | --- | --- | --- | --- | --- | --- | --- | --- | --- | --- | --- | --- | --- | --- | --- |
| CC[C@H](C(=O)NCc1ccc(F)cc1)C1CC[C@H](C)C([C@@H](C)[C@H](O)[C@H](C)C(=O)[C@H](CC)C2O[C@]3(C=C[C@@H](O)C4(CC[C@@](C)(C5CC[C@](O)(CC)[C@H](C)O5)O4)O3)[C@H](C)C[C@@H]2C)O1 (stereo partly drawn) [F-p] | 32 µg/mL (≈ 37.3 µM) | 32 µg/mL (≈ 37.3 µM) | 3.29 ± 0.91 µM | 0.53 | 2.62 | 32 µg/mL (≈ 37.3 µM) | 32 µg/mL (≈ 37.3 µM) | 32 µg/mL (≈ 37.3 µM) | 50 µg/mL (≈ 58.3 µM) | 32 µg/mL (≈ 37.3 µM) | 64 µg/mL (≈ 74.6 µM) | 16 µg/mL (≈ 18.6 µM) | 32 µg/mL (≈ 37.3 µM) | 32 µg/mL (≈ 37.3 µM) | 16 µg/mL (≈ 18.6 µM) | 32 µg/mL (≈ 37.3 µM) | – |
| CC[C@H](C(=O)NCc1ccc([N+](=O)[O-])cc1)C1CC[C@H](C)C([C@@H](C)[C@H](O)[C@H](C)C(=O)[C@H](CC)C2O[C@]3(C=C[C@@H](O)C4(CC[C@@](C)(C5CC[C@](O)(CC)[C@H](C)O5)O4)O3)[C@H](C)C[C@@H]2C)O1 (stereo partly drawn) [NO2-p] | 128 µg/mL (≈ 145 µM) | 128 µg/mL (≈ 145 µM) | 20.4 ± 8.63 µM | 1.53 | 0.34 | 256 µg/mL (≈ 289 µM) | 256 µg/mL (≈ 289 µM) | 128 µg/mL (≈ 145 µM) | 50 µg/mL (≈ 56.5 µM) | 128 µg/mL (≈ 145 µM) | 128 µg/mL (≈ 145 µM) | 256 µg/mL (≈ 289 µM) | 256 µg/mL (≈ 289 µM) | 256 µg/mL (≈ 289 µM) | 128 µg/mL (≈ 145 µM) | 128 µg/mL (≈ 145 µM) | – |
| CC[C@@H](C(=O)[C@@H](C)[C@@H](O)[C@H](C)[C@@H]1O[C@@H]([C@@H](CC)C(=O)O)CC[C@@H]1C)[C@H]1O[C@]2(C=C[C@@H](O)[C@]3(CC[C@@](C)([C@H]4CC[C@](O)(CC)[C@H](C)O4)O3)O2)[C@H](C)C[C@@H]1C [SAL, Salinomycin] | – | – | 0.81 ± 0.32 µM | 1.72 | 16.07 | – | – | – | 25 to 50 µg/mL (≈ 33.3 to 66.6 µM) | – | – | – | – | – | – | – | MIC (MRSE 460/11; MRSE): 16 µg/mL (≈ 21.3 µM); MIC (S. aureus ATCC 25923; ATCC25923, 18 h): 2 µg/mL (≈ 2.66 µM); MIC (MRSE 470/11; MRSE): 16 µg/mL (≈ 21.3 µM); MIC (MRSA 537/12; MRSA): 16 µg/mL (≈ 21.3 µM); MIC (MRSA 572/12; MRSA): 16 µg/mL (≈ 21.3 µM); MIC (MRSA 522/12; MRSA): 16 µg/mL (≈ 21.3 µM); MIC (MRSE 468/11; MRSE): 16 µg/mL (≈ 21.3 µM); MIC (MRSE 466/11; MRSE): 8 µg/mL (≈ 10.7 µM); MIC (MRSE 461/11; MRSE): 16 µg/mL (≈ 21.3 µM); MIC (MRSE 489/11; MRSE): 16 µg/mL (≈ 21.3 µM); MIC ([2]; ATCC12228, 18 h): 2 µg/mL (≈ 2.66 µM); MIC (MRSA 462/11; MRSA): 16 µg/mL (≈ 21.3 µM) |
